According to ChEMBL document CHEMBL1156422 (J Biol Chem, 2007):
Active and inactive are the calls of the source. No cut-off for these calls is given here.

Columns and labels:
[1] = biological target: T1, Serine/threonine-protein kinase PLK3 (Homo sapiens, UniProt Q9H4B4); test: Inhibition of AX-7503 binding to recombinant Plk3 expressed in HeLa cells by Western blot; type: cell-based
Target sequence in this assay (Q9H4B4 whole entry): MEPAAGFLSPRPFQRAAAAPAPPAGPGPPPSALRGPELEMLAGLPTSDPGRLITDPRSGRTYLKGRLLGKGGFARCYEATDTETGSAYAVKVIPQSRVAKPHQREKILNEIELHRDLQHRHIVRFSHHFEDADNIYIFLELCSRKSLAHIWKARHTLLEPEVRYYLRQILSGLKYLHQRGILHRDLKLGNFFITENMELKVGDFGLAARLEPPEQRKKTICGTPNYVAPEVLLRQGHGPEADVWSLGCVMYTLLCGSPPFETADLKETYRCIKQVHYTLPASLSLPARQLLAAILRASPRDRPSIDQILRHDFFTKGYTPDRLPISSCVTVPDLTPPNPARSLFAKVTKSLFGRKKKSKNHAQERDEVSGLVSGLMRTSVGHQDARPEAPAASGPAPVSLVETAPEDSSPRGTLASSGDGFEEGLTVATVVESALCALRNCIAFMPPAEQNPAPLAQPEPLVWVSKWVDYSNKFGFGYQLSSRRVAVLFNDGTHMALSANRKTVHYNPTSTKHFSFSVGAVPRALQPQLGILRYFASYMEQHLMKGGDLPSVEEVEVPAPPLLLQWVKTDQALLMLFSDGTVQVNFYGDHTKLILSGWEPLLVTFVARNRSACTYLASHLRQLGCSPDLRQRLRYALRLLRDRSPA

[2] = biological target: T1, Serine/threonine-protein kinase PLK3; test: Inhibition of recombinant Plk3 assessed as casein substrate phosphorylation
Target sequence in this assay (Q9H4B4 whole entry): as above

[3] = biological target: T1, Serine/threonine-protein kinase PLK3; test: Inhibition of Plk3 in human A549 cells assessed as casein substrate phosphorylation by Western blot; type: cell-based
Target sequence in this assay (Q9H4B4 whole entry): as above

[4] = biological target: T1, Serine/threonine-protein kinase PLK3; test: Inhibition of recombinant Plk3 expressed in human GM00637 cells at 1 uM assessed as decrease in p53 serine-20 phosphorylation; type: cell-based
Target sequence in this assay (Q9H4B4 whole entry, looked up): as the sequence (Q9H4B4 whole entry) above

[5] = biological target: T1, Serine/threonine-protein kinase PLK3; test: Inhibition of recombinant Plk3 expressed in human GM00637 cells at 1 uM; type: cell-based
Target sequence in this assay (Q9H4B4 whole entry, looked up): as the sequence (Q9H4B4 whole entry) above

[6] = biological target: Serine/threonine-protein kinase PLK2 (Homo sapiens) (UniProt Q9NYY3); test: Inhibition of AX-7503 binding to recombinant Plk2 at 1 uM by Western blot
[7] = biological target: Serine/threonine-protein kinase PLK1 (Homo sapiens, UniProt P53350); test: Inhibition of AX-7503 binding to recombinant Plk1 by Western blot
Chain of Serine/threonine-protein kinase PLK1 (P53350 whole entry): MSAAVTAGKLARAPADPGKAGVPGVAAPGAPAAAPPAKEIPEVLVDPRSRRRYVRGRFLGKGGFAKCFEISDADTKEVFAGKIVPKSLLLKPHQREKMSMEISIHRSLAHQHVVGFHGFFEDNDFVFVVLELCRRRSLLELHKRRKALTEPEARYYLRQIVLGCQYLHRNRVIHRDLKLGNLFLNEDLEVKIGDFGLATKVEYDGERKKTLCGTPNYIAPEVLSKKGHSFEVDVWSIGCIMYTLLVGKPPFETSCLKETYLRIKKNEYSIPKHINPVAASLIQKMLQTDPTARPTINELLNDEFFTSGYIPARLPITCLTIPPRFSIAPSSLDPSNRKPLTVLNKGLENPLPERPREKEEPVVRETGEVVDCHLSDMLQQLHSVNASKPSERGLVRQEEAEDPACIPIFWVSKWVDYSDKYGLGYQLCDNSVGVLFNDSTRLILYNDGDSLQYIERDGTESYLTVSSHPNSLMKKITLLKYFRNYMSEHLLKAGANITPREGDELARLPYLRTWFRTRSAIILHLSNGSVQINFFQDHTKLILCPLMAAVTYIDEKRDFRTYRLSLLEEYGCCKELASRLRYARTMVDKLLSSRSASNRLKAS

Chain of Serine/threonine-protein kinase PLK2 (Homo sapiens) (Q9NYY3 whole entry, looked up): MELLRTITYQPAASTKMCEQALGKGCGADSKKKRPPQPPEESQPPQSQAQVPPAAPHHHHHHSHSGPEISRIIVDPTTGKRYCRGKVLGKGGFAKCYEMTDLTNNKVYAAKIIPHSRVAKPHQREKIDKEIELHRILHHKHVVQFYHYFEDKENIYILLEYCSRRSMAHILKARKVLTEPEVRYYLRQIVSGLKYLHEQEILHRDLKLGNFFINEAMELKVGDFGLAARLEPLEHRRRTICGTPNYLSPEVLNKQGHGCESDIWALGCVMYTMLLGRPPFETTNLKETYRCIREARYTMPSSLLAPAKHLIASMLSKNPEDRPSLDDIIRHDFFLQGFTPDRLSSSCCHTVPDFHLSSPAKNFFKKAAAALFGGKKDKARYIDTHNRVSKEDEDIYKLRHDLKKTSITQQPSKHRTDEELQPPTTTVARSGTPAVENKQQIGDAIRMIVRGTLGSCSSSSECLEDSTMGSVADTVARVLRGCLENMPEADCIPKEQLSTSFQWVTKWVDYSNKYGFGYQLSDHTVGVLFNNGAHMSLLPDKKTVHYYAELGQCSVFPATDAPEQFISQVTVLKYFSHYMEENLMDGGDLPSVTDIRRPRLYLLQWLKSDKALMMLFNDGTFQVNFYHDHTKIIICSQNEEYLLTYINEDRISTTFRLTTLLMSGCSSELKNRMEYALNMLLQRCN

## COC[C@H]1OC(=O)c2coc3c2[C@@]1(C)C1=C(C3=O)[C@@H]2CCC(=O)[C@@]2(C)C[C@H]1OC(C)=O [WORTMANNIN]
[1]
  IC50: 0.049 µM
[2]
  IC50: 0.048 µM
[3]
  IC50: 0.22 µM
[4]
  Activity: Active
[5]
  inhibition: 75%
[6]
  Activity: Active

## O=c1cc(N2CCOCC2)oc2c(-c3ccccc3)cccc12 [LY-294002]
[1]
  IC50: 3 µM
[7]
  IC50: 2.1 µM
[2]
  IC50: 88 µM
